From patent publication US20250223303A1, “TRICYCLIC BORONIC ACID DERIVATIVE, AND PREPARATION METHOD THEREFOR AND APPLICATION THEREOF” (priority 2021, published 2025)

How the values were obtained:
Assay type in all cases: biochemical
OXA-48 = target: T1, OXA-48 (Klebsiella pneumoniae, UniProt Q6XEC0); assay: Enzyme activity test (FC5 fluorescent substrate), OXA-48; conditions: enzyme 650 pM, substrate FC5 125 μM
T1 construct: purchased GenScript Biotech Co., Ltd
Experimental: (§1) Compound stock solution: the compound was prepared as a 50 mM DMSO stock solution. […] After aliquoting, the compound stock solutions were stored at −20° C.
(§2) Preparation and storage of antibiotic substrate stock solution: antibiotic fluorescent substrate FC5 was synthesized internally and prepared as a 2 mM stock solution, which was stored at −20° C. after aliquoting.
(§3) Storage of β-lactamases: each […] was synthesized by GenScript Biotech Co., Ltd., and stored at −80° C. after aliquoting to avoid repeated freezing and thawing.
(§4) Preparation of enzyme activity reaction buffer: SBL buffer: PBS pH 7.4, 0.01% (v/v) Triton X-100; MBL buffer: 50 Mm HEPES in PBS pH 7.2, 1 μM ZnSO4, 1 μg/mL BSA, 0.010% v/v Triton X-100
(§5) a) The compound to be tested and buffer were taken out and warmed to room temperature.
(§6) b) Each compound was diluted with DMSO and buffer to the initial experimental concentration (Table 2), and then the compound was diluted 3-fold for a total of 10 concentrations.
(§7) c) Diluted compounds were added to wells 1 to 20 of a 384-well black plate at 2 replicate wells per concentration, 5 μL per well. 5 µL of DMSO was added to wells 21 to 24.
(§8) d) Each enzyme was diluted to the experimental concentration (Table 2) in SBL and MBL buffers, and finally 35 μL/well was added, with a total of 22 wells. 35 μL buffer was added to wells 23 to 24. Wells 21 to well 22 served as the maximum test values (Max), while wells 23 to 24 were designated as the minimum test values (Min).
(§9) e) The 384-well plate was centrifuged quickly and incubated for 10 minutes at room temperature.
(§10) f) The antibiotic substrate FC5 was diluted in buffer to the experimental concentration of each enzyme (Table 2).
(§11) g) The incubated 384-well plate was taken out and FC-5 was added to wells […]. The 384-well plate was centrifuged rapidly and promptly transferred to a microplate reader for reading.
(§12) h) The fluorescence intensity was measured at 355 nm excitation light/460 nm emission light in the microplate reader, and the fluorescence intensity was measured every three minutes for a total of 10 measurements.
(§13) Initial velocity of enzyme reaction V: Subtract the background reading (Min wells) without enzyme from each fluorescence intensity reading, and then perform on a linear regression analysis on each compound concentration group. The slope is the initial velocity of enzyme reaction (V) at each compound concentration.
(§14) Dose-effect curve and IC50 calculation of compounds: The initial velocity of enzyme reaction under the effect of each concentration of compounds was subjected to nonlinear regression fitting. The IC50 (half-maximal inhibitory concentration) of each compound was calculated using the formula […] (Vi: the initial velocity of enzyme reaction at each compound concentration; V0: initial velocity of enzyme reaction without the compound (Max wells). The software used was Graphpad prism 8.

OXA-23 = target: T2, OXA-23 (Acinetobacter baumannii, UniProt Q9L4P2); assay: Enzyme activity test (FC5 fluorescent substrate), OXA-23; conditions: enzyme 650 pM, substrate FC5 50 μM
T2 construct: purchased GenScript Biotech Co., Ltd
T2 sequence (Q9L4P2 18-273): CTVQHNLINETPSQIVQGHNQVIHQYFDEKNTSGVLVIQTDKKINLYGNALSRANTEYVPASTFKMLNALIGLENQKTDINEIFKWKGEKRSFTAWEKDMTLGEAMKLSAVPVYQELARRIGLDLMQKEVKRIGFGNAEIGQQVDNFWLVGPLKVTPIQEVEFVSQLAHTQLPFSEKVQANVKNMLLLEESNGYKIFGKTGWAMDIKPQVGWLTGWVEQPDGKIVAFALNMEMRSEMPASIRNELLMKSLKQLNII
Experimental: as §1, §2, §3, §4, §5, §6, §7, §8, §9, §10, §11, §12, §13, §14

Ampc = Ampc (UniProt P24735); assay: Enzyme activity test (FC5 fluorescent substrate), AmpC; conditions: enzyme 25 pM, substrate FC5 15 μM
Experimental: as §1, §2, §3, §4, §5, §6, §7, §8, §9, §10, §11, §12, §13, §14

VIM-1 = target: T3, VIM-1 (Pseudomonas aeruginosa, UniProt A0A0F7KYQ8); assay: Enzyme activity test (FC5 fluorescent substrate), VIM-1; conditions: enzyme 70 pM, substrate FC5 10 μM
T3 construct: purchased GenScript Biotech Co., Ltd
Experimental: as §1, §2, §3, §4, §5, §6, §7, §8, §9, §10, §11, §12, §13, §14

VIM-2 = target: T4, VIM-2 (Escherichia coli, UniProt Q5U7L7); assay: Enzyme activity test (FC5 fluorescent substrate), VIM-2; conditions: enzyme 25 pM, substrate FC5 20 μM
T4 construct: purchased GenScript Biotech Co., Ltd
Experimental: as §1, §2, §3, §4, §5, §6, §7, §8, §9, §10, §11, §12, §13, §14

KPC-2 = target: T5, KPC-2 (Klebsiella pneumoniae, UniProt Q9F663); assay: Enzyme activity test (FC5 fluorescent substrate), KPC-2; conditions: enzyme 45 pM, substrate FC5 25 μM
T5 construct: purchased GenScript Biotech Co., Ltd
T5 sequence (Q9F663 25-293 limits assumed): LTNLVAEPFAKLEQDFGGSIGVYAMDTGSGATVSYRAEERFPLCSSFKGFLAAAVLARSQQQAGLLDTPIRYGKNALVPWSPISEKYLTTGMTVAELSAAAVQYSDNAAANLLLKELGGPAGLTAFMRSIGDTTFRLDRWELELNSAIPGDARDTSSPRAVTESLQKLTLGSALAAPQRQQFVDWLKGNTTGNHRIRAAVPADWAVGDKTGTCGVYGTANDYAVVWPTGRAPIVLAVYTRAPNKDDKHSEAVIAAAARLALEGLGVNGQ
Experimental: as §1, §2, §3, §4, §5, §6, §7, §8, §9, §10, §11, §12, §13, §14

NDM-1 = target: T6, NDM-1 (Klebsiella pneumoniae, UniProt C7C422); assay: Enzyme activity test (FC5 fluorescent substrate), NDM-1; conditions: enzyme 6 pM, substrate FC5 15 μM, MBL buffer
T6 construct: purchased GenScript Biotech Co., Ltd
T6 sequence (C7C422 29-270 limits assumed): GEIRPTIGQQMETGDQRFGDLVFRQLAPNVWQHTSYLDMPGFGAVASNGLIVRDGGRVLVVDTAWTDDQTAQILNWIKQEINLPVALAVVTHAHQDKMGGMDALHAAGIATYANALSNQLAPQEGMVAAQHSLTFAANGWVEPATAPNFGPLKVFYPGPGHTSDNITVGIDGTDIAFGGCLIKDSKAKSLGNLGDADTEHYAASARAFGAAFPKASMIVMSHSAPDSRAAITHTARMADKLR
Experimental: as §1, §2, §3, §4, §5, §6, §7, §8, §9, §10, §11, §12, §13, §14

IMP-1 = target: T7, IMP-1 (Serratia marcescens, UniProt P52699); assay: Enzyme activity test (FC5 fluorescent substrate), IMP-1; conditions: enzyme 20 pM, substrate FC5 15 μM
T7 construct: purchased GenScript Biotech Co., Ltd
T7 sequence (P52699 19-246 limits assumed): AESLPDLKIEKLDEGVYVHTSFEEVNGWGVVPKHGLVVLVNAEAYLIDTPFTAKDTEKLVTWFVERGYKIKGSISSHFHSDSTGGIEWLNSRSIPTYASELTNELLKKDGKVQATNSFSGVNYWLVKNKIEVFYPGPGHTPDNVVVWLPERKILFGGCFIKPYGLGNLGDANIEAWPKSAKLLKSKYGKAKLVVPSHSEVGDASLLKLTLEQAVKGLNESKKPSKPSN
Experimental: as §1, §2, §3, §4, §5, §6, §7, §8, §9, §10, §11, §12, §13, §14

NDM-5 = NDM-5 (Klebsiella pneumoniae, UniProt C7C422, M154L/V88L); assay: Enzyme activity test (FC5 fluorescent substrate), NDM-5
Sequence of NDM-5 (C7C422 29-270 V88L/M154L): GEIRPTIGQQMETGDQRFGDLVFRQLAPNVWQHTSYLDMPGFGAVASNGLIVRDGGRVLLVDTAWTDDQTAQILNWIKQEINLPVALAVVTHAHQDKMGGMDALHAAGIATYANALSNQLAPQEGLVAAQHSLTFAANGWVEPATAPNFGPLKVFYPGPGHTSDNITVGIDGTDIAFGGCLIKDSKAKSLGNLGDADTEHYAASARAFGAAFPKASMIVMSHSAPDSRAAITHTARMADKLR
Experimental: as §1, §2, §3, §4, §5, §6, §7, §8
e) The 384-well plate was centrifuged quickly and incubated for 10 minutes at room temperature. […]
as §11, §12
(§15) Initial velocity of enzyme reaction V: Subtract the background reading (Min wells) without enzyme from each fluorescence intensity reading, and then perform on a linear regression analysis on each compound concentration group. […]
as §14

CTX-M-15 = target: T8, CTX-M-15 (Escherichia coli, UniProt Q9EXV5); assay: Enzyme activity test (FC5 fluorescent substrate), CTX-M-15; conditions: enzyme 45 pM, substrate FC5 50 μM
T8 construct: purchased GenScript Biotech Co., Ltd
T8 sequence (Q9EXV5 entry or part of it): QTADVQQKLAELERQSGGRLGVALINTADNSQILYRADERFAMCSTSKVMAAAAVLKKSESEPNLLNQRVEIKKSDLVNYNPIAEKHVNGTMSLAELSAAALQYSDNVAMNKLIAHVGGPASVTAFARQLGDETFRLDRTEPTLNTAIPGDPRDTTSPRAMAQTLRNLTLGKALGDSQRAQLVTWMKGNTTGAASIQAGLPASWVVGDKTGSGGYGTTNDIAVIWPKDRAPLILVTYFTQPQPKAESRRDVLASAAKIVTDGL
Experimental: as §1, §2, §3, §4, §5, §6, §7, §8, §9, §10, §11, §12, §13, §14

OXA-10 = target: T9, OXA-10 (Pseudomonas aeruginosa, UniProt P14489); assay: Enzyme activity test (FC5 fluorescent substrate), OXA-10; conditions: enzyme 350 pM, substrate FC5 50 μM
T9 construct: purchased GenScript Biotech Co., Ltd
T9 sequence (P14489 20-266): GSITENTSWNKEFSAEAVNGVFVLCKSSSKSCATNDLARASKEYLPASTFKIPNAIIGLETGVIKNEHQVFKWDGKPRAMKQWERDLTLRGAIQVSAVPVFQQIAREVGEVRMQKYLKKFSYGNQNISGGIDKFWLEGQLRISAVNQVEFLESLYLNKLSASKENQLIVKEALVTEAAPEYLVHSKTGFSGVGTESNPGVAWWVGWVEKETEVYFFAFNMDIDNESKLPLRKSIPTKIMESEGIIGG
Experimental: as §1, §2, §3, §4, §5, §6, §7, §8, §9, §10, §11, §12, §13, §14

[1] = tested on: four classes of β-lactamase, A, B, C, and D; assay: Enzyme activity test, summary by β-lactamase class
Experimental: as §1, §2, §3, §4, §5, §6, §7
d) Each enzyme was diluted to the experimental concentration (Table 2) in SBL and MBL buffers, and finally 35 μL/well was added, with a total of 22 wells. 35 μL buffer was added to wells 23 to 24. […]
as §11, §12, §15

T1 sequence (Q6XEC0 23-265 limits assumed): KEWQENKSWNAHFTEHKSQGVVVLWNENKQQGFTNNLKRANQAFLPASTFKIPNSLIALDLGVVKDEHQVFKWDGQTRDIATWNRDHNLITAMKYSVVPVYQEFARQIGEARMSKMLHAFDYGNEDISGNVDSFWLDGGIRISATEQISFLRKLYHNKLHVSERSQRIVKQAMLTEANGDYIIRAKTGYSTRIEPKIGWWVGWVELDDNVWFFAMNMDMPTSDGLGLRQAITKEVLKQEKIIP

CN1CC(CCSc2ccc3c(c2C(=O)O)OB(O)[C@@H]2C[C@H]32)C1 [Compound 24-a]
IC50 (OXA-48): 1 nM
IC50 (OXA-23): 1.4 nM
IC50 (Ampc): 63.8 nM
IC50 (VIM-1): 7.7 nM
IC50 (VIM-2): 6 nM
IC50 (KPC-2): 3.4 nM
IC50 (NDM-1): 19.7 nM
IC50 (IMP-1): < 5.1 nM
IC50 (NDM-5): 14.8 nM
IC50 (CTX-M-15): 3.1 nM
IC50 (OXA-10): 39.4 nM

O=C(O)c1c(S[C@H]2CCOC2)ccc2c1OB(O)[C@@H]1C[C@H]21 [Compound 4]
IC50 (OXA-48): 0.07 nM
IC50 (OXA-23): 1.3 nM
IC50 (Ampc): 33.8 nM
IC50 (VIM-1): < 0.05 nM
IC50 (VIM-2): < 0.05 nM
IC50 (KPC-2): 1.5 nM
IC50 (NDM-1): 1.9 nM
IC50 (IMP-1): < 5.1 nM
IC50 (NDM-5): 2.3 nM
IC50 (CTX-M-15): 1.1 nM
IC50 (OXA-10): 3.7 nM

NC(=O)[C@@H]1CC[C@@H]2CN1C(=O)N2OS(=O)(=O)O [Avibactam, reference compound]
activity against class A and class C serine β-lactamases (SBL) ([1]; class A and class C SBL): good activity
inhibitory effect on class B metal-zinc ion β-lactamase (MBL) ([1]; class B MBL): no inhibitory effect
inhibitory activity against the class D serine β-lactamase ([1]; class D SBL): low inhibitory activity
IC50 (VIM-1): > 10000 nM
IC50 (VIM-2): > 10000 nM
IC50 (NDM-1): > 10000 nM
IC50 (IMP-1): > 10000 nM
IC50 (OXA-10): 5760 nM

CSc1ccc2c(c1C(=O)O)OB(O)[C@@H]1C[C@H]21 [Compound 1]
IC50 (OXA-48): 0.2 nM
IC50 (OXA-23): 0.8 nM
IC50 (Ampc): 17.2 nM
IC50 (VIM-1): 1.5 nM
IC50 (VIM-2): 0.1 nM
IC50 (KPC-2): 1.2 nM
IC50 (NDM-1): 13.1 nM
IC50 (IMP-1): < 5.1 nM
IC50 (NDM-5): 15.3 nM
IC50 (CTX-M-15): 1.3 nM
IC50 (OXA-10): 10 nM

CC(C)Sc1ccc2c(c1C(=O)O)OB(O)[C@@H]1C[C@H]21 [Compound 2]
IC50 (OXA-48): 0.4 nM
IC50 (OXA-23): 0.6 nM
IC50 (Ampc): 42.7 nM
IC50 (VIM-1): 0.1 nM
IC50 (VIM-2): 0.1 nM
IC50 (KPC-2): 3.3 nM
IC50 (NDM-1): 1.6 nM
IC50 (IMP-1): < 5.1 nM
IC50 (NDM-5): 2.9 nM
IC50 (CTX-M-15): 3.2 nM
IC50 (OXA-10): 6.8 nM
